*1 amine or outer side, *2 acyl side, *3 side chain or, on linkers, in order; H or OH if unused. Where a SMILES comes first, the peptide text is derived from it. Side-chain parts run from the residue outwards. [ ]: non-standard residue; d: D form. The star is where a group is joined. X1 = O=C(O)CCCCCCCCCCCCCCCCCCC(=O)N1CCN(CC(=O)*)CC1; C20 diacid = O=C(O)CCCCCCCCCCCCCCCCCCC(=O)*; C18 diacid = O=C(O)CCCCCCCCCCCCCCCCC(=O)*; γGlu = O=C(O)[C@H](CCC(=O)[*:2])N[*:1]; AEEA = NCCOCCOCC(=O)O; Aib = CC(C)(N)C(=O)O
Tests used:
[1] = target: T1, human GIP R (Homo sapiens, UniProt P48546); test: Human GIP receptor (GIP R) activity assay, cAMP induction (AlphaScreen) in HEK293 cells; assay type: cell-based; conditions: Table 3; most comprehensive data; read-out: hGIP-R cAMP EC50 average value
T1 construct: expressed in transfected cells
T1 sequence (P48546 22-466): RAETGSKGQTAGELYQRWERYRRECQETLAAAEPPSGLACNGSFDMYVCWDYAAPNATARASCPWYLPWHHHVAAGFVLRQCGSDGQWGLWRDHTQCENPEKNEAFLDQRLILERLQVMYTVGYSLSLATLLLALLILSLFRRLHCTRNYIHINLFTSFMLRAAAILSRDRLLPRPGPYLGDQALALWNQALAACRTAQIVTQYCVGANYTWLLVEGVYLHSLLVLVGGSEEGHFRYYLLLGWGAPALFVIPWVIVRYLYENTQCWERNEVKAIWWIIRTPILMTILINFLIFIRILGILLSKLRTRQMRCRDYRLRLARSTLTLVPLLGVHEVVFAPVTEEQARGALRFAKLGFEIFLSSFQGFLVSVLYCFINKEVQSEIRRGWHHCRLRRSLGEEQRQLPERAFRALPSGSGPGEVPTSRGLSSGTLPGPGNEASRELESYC
Summary of the method: (§1)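 Stable HEK293 clones expressing human GIP R or GLP-1 R, seeded 1 day before; cells washed in Tyrode's buffer (10 mM HEPES, pH 7.4), stimulated, then lysed. cAMP measured by AlphaScreen bead competition (1 h, room temperature, dark). EC50 = concentration giving half-maximal cAMP elevation, from curves of absolute cAMP (nM) vs log concentration.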

[2] = target: T2, human GLP-1 R (Homo sapiens, UniProt P43220); test: Human GLP-1 receptor (GLP-1 R) activity assay, cAMP induction (AlphaScreen) in HEK293 cells; assay type: cell-based; conditions: Table 3; most comprehensive data; read-out: hGLP-1-R cAMP EC50 average value
T2 construct: expressed in transfected cells
Summary of the method: as §1

T2 sequence (P43220 24-463): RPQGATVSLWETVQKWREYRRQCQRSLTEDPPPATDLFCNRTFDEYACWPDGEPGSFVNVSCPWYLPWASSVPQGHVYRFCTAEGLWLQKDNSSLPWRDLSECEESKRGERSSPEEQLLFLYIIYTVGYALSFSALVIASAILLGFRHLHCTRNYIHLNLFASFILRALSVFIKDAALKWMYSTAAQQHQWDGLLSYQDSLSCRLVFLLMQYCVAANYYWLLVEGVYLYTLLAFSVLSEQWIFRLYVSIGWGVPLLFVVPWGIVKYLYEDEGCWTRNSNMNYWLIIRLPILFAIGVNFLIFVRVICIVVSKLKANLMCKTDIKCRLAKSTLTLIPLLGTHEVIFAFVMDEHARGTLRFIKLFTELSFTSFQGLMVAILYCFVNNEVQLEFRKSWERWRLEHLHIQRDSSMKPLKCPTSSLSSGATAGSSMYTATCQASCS

Compound	EC50 [1] [nM]	EC50 [2] [nM]
CC[C@H](C)[C@H](NC(=O)[C@H](CO)NC(=O)[C@H](Cc1ccc(O)cc1)NC(=O)[C@H](CC(=O)O)NC(=O)[C@H](CO)NC(=O)[C@@H](NC(=O)[C@H](Cc1ccccc1)NC(=O)[C@@H](NC(=O)CNC(=O)[C@H](CCC(=O)O)NC(=O)C(C)(C)NC(=O)[C@@H](N)Cc1ccc(O)cc1)[C@@H](C)O)[C@@H](C)O)C(=O)N[C@@H](C)C(=O)N[C@@H](CC(C)C)C(=O)N[C@@H](CC(=O)O)C(=O)N[C@@H](CCCCN)C(=O)N[C@@H](CCCCNC(=O)COCCOCCNC(=O)COCCOCCNC(=O)CC[C@H](NC(=O)CCCCCCCCCCCCCCCCCCC(=O)O)C(=O)O)C(=O)N[C@@H](C)C(=O)N[C@@H](CCC(N)=O)C(=O)N[C@@H](CCCNC(=N)N)C(=O)N[C@@H](CCC(=O)O)C(=O)N[C@@H](Cc1ccccc1)C(=O)N[C@H](C(=O)N[C@@H](CCC(=O)O)C(=O)N[C@@H](Cc1c[nH]c2ccccc12)C(=O)N[C@@H](CC(C)C)C(=O)N[C@@H](CC(C)C)C(=O)N[C@@H](C)C(=O)N[C@@H](CCC(N)=O)C(=O)NCC(=O)N1CCC[C@H]1C(=O)N[C@@H](CO)C(=O)N[C@@H](CO)C(=O)NCC(=O)N[C@@H](C)C(=O)N1CCC[C@H]1C(=O)N1CCC[C@H]1C(=O)N1CCC[C@H]1C(=O)N[C@@H](CO)C(N)=O)C(C)C [Compound 47] (H-Y[Aib]EGTFTSDYSIALDKK([AEEA-AEEA-γGlu-C20 diacid])AQREFVEWLLAQGPSSGAPPPS-NH2)	0.005	0.016
CC[C@H](C)[C@H](NC(=O)[C@H](CO)NC(=O)[C@H](Cc1ccc(O)cc1)NC(=O)[C@H](CC(=O)O)NC(=O)[C@H](CO)NC(=O)[C@@H](NC(=O)[C@H](Cc1ccccc1)NC(=O)[C@@H](NC(=O)CNC(=O)[C@H](CCC(=O)O)NC(=O)C(C)(C)NC(=O)[C@@H](N)Cc1ccc(O)cc1)[C@@H](C)O)[C@@H](C)O)C(=O)N[C@@H](C)C(=O)N[C@@H](CC(C)C)C(=O)N[C@@H](CC(=O)O)C(=O)N[C@@H](CCCCN)C(=O)N[C@@H](CCCCNC(=O)COCCOCCNC(=O)COCCOCCNC(=O)CC[C@H](NC(=O)CCCCCCCCCCCCCCCCCCC(=O)O)C(=O)O)C(=O)N[C@@H](C)C(=O)N[C@@H](CCC(N)=O)C(=O)N[C@@H](CCCCN)C(=O)N[C@@H](CCC(=O)O)C(=O)N[C@@H](Cc1ccccc1)C(=O)N[C@H](C(=O)N[C@@H](CCC(=O)O)C(=O)N[C@@H](Cc1c[nH]c2ccccc12)C(=O)N[C@@H](CC(C)C)C(=O)N[C@@H](CC(C)C)C(=O)N[C@@H](C)C(=O)N[C@@H](CCC(N)=O)C(=O)NCC(=O)N1CCC[C@H]1C(=O)N[C@@H](CO)C(=O)N[C@@H](CO)C(=O)NCC(=O)N[C@@H](C)C(=O)N1CCC[C@H]1C(=O)N1CCC[C@H]1C(=O)N1CCC[C@H]1C(=O)N[C@@H](CO)C(N)=O)C(C)C [Compound 48] (H-Y[Aib]EGTFTSDYSIALDKK([AEEA-AEEA-γGlu-C20 diacid])AQKEFVEWLLAQGPSSGAPPPS-NH2)	0.006	0.052
CC[C@H](C)[C@H](NC(=O)[C@H](CO)NC(=O)[C@H](Cc1ccc(O)cc1)NC(=O)[C@H](CC(=O)O)NC(=O)[C@H](CO)NC(=O)[C@@H](NC(=O)[C@H](Cc1ccccc1)NC(=O)[C@@H](NC(=O)CNC(=O)[C@H](CCC(=O)O)NC(=O)C(C)(C)NC(=O)[C@@H](N)Cc1ccc(O)cc1)[C@@H](C)O)[C@@H](C)O)C(=O)N[C@@H](C)C(=O)N[C@@H](CC(C)C)C(=O)N[C@@H](CC(=O)O)C(=O)N[C@@H](CCCCN)C(=O)N[C@@H](CCCCNC(=O)COCCOCCNC(=O)COCCOCCNC(=O)CC[C@H](NC(=O)CCCCCCCCCCCCCCCCCCC(=O)O)C(=O)O)C(=O)N[C@@H](C)C(=O)N[C@@H](CCC(N)=O)C(=O)N[C@@H](CCCCN)C(=O)N[C@@H](CCC(=O)O)C(=O)N[C@@H](Cc1ccccc1)C(=O)N[C@H](C(=O)N[C@@H](CCC(=O)O)C(=O)N[C@@H](Cc1c[nH]c2ccccc12)C(=O)N[C@@H](CC(C)C)C(=O)N[C@@H](CC(C)C)C(=O)N[C@@H](C)C(=O)N[C@@H](C)C(=O)NCC(=O)N1CCC[C@H]1C(=O)N[C@@H](CO)C(=O)N[C@@H](CO)C(=O)NCC(=O)N[C@@H](C)C(=O)N1CCC[C@H]1C(=O)N1CCC[C@H]1C(=O)N1CCC[C@H]1C(=O)N[C@@H](CO)C(N)=O)C(C)C [Compound 49] (H-Y[Aib]EGTFTSDYSIALDKK([AEEA-AEEA-γGlu-C20 diacid])AQKEFVEWLLAAGPSSGAPPPS-NH2)	0.009	0.053
CC[C@H](C)[C@H](NC(=O)[C@H](CO)NC(=O)[C@H](Cc1ccc(O)cc1)NC(=O)[C@H](CC(=O)O)NC(=O)[C@H](CO)NC(=O)[C@@H](NC(=O)[C@H](Cc1ccccc1)NC(=O)[C@@H](NC(=O)CNC(=O)[C@H](CCC(=O)O)NC(=O)C(C)(C)NC(=O)[C@@H](N)Cc1ccc(O)cc1)[C@@H](C)O)[C@@H](C)O)C(=O)N[C@@H](C)C(=O)N[C@@H](CC(C)C)C(=O)N[C@@H](CC(=O)O)C(=O)N[C@@H](CCCCN)C(=O)N[C@@H](CCCCNC(=O)COCCOCCNC(=O)COCCOCCNC(=O)CC[C@H](NC(=O)CCCCCCCCCCCCCCCCCCC(=O)O)C(=O)O)C(=O)N[C@@H](C)C(=O)N[C@@H](CCC(N)=O)C(=O)N[C@@H](CCCNC(=N)N)C(=O)N[C@@H](C)C(=O)N[C@@H](Cc1ccccc1)C(=O)N[C@H](C(=O)N[C@@H](CCC(=O)O)C(=O)N[C@@H](Cc1c[nH]c2ccccc12)C(=O)N[C@@H](CC(C)C)C(=O)N[C@@H](CC(C)C)C(=O)N[C@@H](C)C(=O)N[C@@H](CCC(N)=O)C(=O)NCC(=O)N1CCC[C@H]1C(=O)N[C@@H](CO)C(=O)N[C@@H](CO)C(=O)NCC(=O)N[C@@H](C)C(=O)N1CCC[C@H]1C(=O)N1CCC[C@H]1C(=O)N1CCC[C@H]1C(=O)N[C@@H](CO)C(N)=O)[C@@H](C)CC [Compound 50] (H-Y[Aib]EGTFTSDYSIALDKK([AEEA-AEEA-γGlu-C20 diacid])AQRAFIEWLLAQGPSSGAPPPS-NH2)	0.007	0.015
CC[C@H](C)[C@H](NC(=O)[C@H](CO)NC(=O)[C@H](Cc1ccc(O)cc1)NC(=O)[C@H](CC(=O)O)NC(=O)[C@H](CO)NC(=O)[C@@H](NC(=O)[C@H](Cc1ccccc1)NC(=O)[C@@H](NC(=O)CNC(=O)[C@H](CCC(=O)O)NC(=O)C(C)(C)NC(=O)[C@@H](N)Cc1ccc(O)cc1)[C@@H](C)O)[C@@H](C)O)C(=O)N[C@@H](C)C(=O)N[C@@H](CC(C)C)C(=O)N[C@@H](CC(=O)O)C(=O)N[C@@H](CCCCN)C(=O)N[C@@H](CCCCNC(=O)COCCOCCNC(=O)COCCOCCNC(=O)CC[C@H](NC(=O)CCCCCCCCCCCCCCCCC(=O)O)C(=O)O)C(=O)N[C@@H](C)C(=O)N[C@@H](CCC(N)=O)C(=O)N[C@@H](CCCNC(=N)N)C(=O)N[C@@H](C)C(=O)N[C@@H](Cc1ccccc1)C(=O)N[C@H](C(=O)N[C@@H](CCC(=O)O)C(=O)N[C@@H](Cc1c[nH]c2ccccc12)C(=O)N[C@@H](CC(C)C)C(=O)N[C@@H](CC(C)C)C(=O)N[C@@H](C)C(=O)N[C@@H](CCC(N)=O)C(=O)NCC(=O)N1CCC[C@H]1C(=O)N[C@@H](CO)C(=O)N[C@@H](CO)C(=O)NCC(=O)N[C@@H](C)C(=O)N1CCC[C@H]1C(=O)N1CCC[C@H]1C(=O)N1CCC[C@H]1C(=O)N[C@@H](CO)C(N)=O)C(C)C [Compound 51] (H-Y[Aib]EGTFTSDYSIALDKK([AEEA-AEEA-γGlu-C18 diacid])AQRAFVEWLLAQGPSSGAPPPS-NH2)	0.005	0.017
CC[C@H](C)[C@H](NC(=O)[C@H](CO)NC(=O)[C@H](Cc1ccc(O)cc1)NC(=O)[C@H](CC(=O)O)NC(=O)[C@H](CO)NC(=O)[C@@H](NC(=O)[C@H](Cc1ccccc1)NC(=O)[C@@H](NC(=O)CNC(=O)[C@H](CCC(=O)O)NC(=O)C(C)(C)NC(=O)[C@@H](N)Cc1ccc(O)cc1)[C@@H](C)O)[C@@H](C)O)C(=O)N[C@@H](C)C(=O)N[C@@H](CC(C)C)C(=O)N[C@@H](CC(=O)O)C(=O)N[C@@H](CCCCN)C(=O)N[C@@H](CCCCNC(=O)COCCOCCNC(=O)COCCOCCNC(=O)CN1CCN(C(=O)CCCCCCCCCCCCCCCCCCC(=O)O)CC1)C(=O)N[C@@H](C)C(=O)N[C@@H](CCC(N)=O)C(=O)N[C@@H](CCCNC(=N)N)C(=O)N[C@@H](C)C(=O)N[C@@H](Cc1ccccc1)C(=O)N[C@H](C(=O)N[C@@H](CCC(=O)O)C(=O)N[C@@H](Cc1c[nH]c2ccccc12)C(=O)N[C@@H](CC(C)C)C(=O)N[C@@H](CC(C)C)C(=O)N[C@@H](C)C(=O)N[C@@H](CCC(N)=O)C(=O)NCC(=O)N1CCC[C@H]1C(=O)N[C@@H](CO)C(=O)N[C@@H](CO)C(=O)NCC(=O)N[C@@H](C)C(=O)N1CCC[C@H]1C(=O)N1CCC[C@H]1C(=O)N1CCC[C@H]1C(=O)N[C@@H](CO)C(N)=O)C(C)C [Compound 52] (H-Y[Aib]EGTFTSDYSIALDKK([AEEA-AEEA-X1])AQRAFVEWLLAQGPSSGAPPPS-NH2)	0.01	0.012

From patent US10093713B2, “GIP-GLP-1 dual agonist compounds and methods” (priority 2013, dated 2018)
